The text below walks through data of US10555951B2, “Targeted treatment of leiomyosarcoma” (Eli Lilly and Company, priority 2015, dated 2020).

Data set [1] can be described thus: Atropisomer equilibrium in solution by 1H NMR and LC-MS. Type of data set: physicochemical. To be noted: ambient temperature, after 24 hours. How it is done:
In aqueous solutions, 8-9% of atropisomer 2 (minor atropisomer) is detected by ^1H NMR and LC-MS in equilibrium with atropisomer 1 (major atropisomer) at ambient temperature after 24 hours. In organic solvents, at ambient temperature after 24 hours, approximately 1-2% of atropisomer 2 is detected by ^1H NMR and LC-MS in equilibrium with atropisomer 1. Although detectable by ^1H NMR and LC-MS analysis, atropisomer 2 is not isolable.

The test system of data set [2] is leiomyosarcoma tumor. The data set is described as follows: Clinical evaluation: leiomyosarcoma patients, cycle 1, CT scan and DCE-US (Table 2). The format is in vivo, human. From the text:
A study of 4,4,4-Trifluoro-N-[(1S)-2-[[(7S)-5-(2-hydroxyethyl)-6-oxo-7H-pyrido[2,3-d][3]benzazepin-7-yl]amino]-1-methyl-2-oxo-ethyl]butanamide hydrate in patients with advanced or metastatic cancer.
(§1) This study is a multicenter, nonrandomized, open-label, dose-escalation study followed by cohort expansion of oral dosed 4,4,4-trifluoro-N-[(1S)-2-[[(7S)-5-(2-hydroxyethyl)-6-oxo-7H-pyrido[2,3-d][3]benzazepin-7-yl]amino]-1-methyl-2-oxo-ethyl]butanamide hydrate in outpatients with advanced or metastatic cancer.
(§2) 4,4,4-Trifluoro-N-[(1S)-2-[[(7S)-5-(2-hydroxyethyl)-6-oxo-7H-pyrido[2,3-d][3]benzazepin-7-yl]amino]-1-methyl-2-oxo-ethyl]butanamide hydrate, dose range 2.5 to 100 mg, given orally as capsules 3 times per week during a 28-day cycle.
(§3) 4,4,4-Trifluoro-N-[(1S)-2-[[(7S)-5-(2-hydroxyethyl)-6-oxo-7H-pyrido[2,3-d][3]benzazepin-7-yl]amino]-1-methyl-2-oxo-ethyl]butanamide hydrate will be administered orally TIW during both the dose-escalation phase (Part A) and the dose-confirmation phase (Part B).
(§4) Efficacy: Depending on the histology, efficacy will be assessed using Response Evaluation Criteria in Solid Tumors (RECIST) v1.1 for solid tumors, the Revised Criteria for Malignant Lymphoma, the Guidelines from the National Cancer Institute Working Group for CLL, or the Response Assessment in Neuro-Oncology (RANO) criteria for glioblastoma. Each patient will be assessed by 1 or more of the following radiologic tests for tumor measurement: X-ray computerized tomography (CT) scan; magnetic resonance imaging (MRI); chest X-ray; PET scan; PET/CT imaging Standardized Uptake Values (SUVMAX).
Data on 3 patients having leiomyosarcoma administered 4,4,4-trifluoro-N-[(1S)-2-[[(7S)-5-(2-hydroxyethyl)-6-oxo-7H-pyrido[2,3-d][3]benzazepin-7-yl]amino]-1-methyl-2-oxo-ethyl]butanamide hydrate in cycle 1 of an ongoing clinical trial are presented in Table 2. Patient 1 was previously treated for leiomyosarcoma with surgery, radiation therapy and 5 prior regimens of systemic therapeutic or targeted therapies. Patient 2 was previously treated for leiomyosarcoma with surgery, radiation therapy, brachytherapy and 3 prior regimens of systemic therapeutic or targeted therapies. Patient 3 was previously treated for leiomyosarcoma with surgery and 3 prior regimens of systemic therapeutic or targeted therapies.

In data set [3] the test system is leiomyosarcoma tumor. The data set is described as follows: Clinical evaluation Part B: leiomyosarcoma patients, RECIST, tumor size, PET/CT SUVmax (Table 3). Type of data set: in vivo, human.
Description: PET/CT imaging of cancer with combined positron emission tomography (PET) and X-ray computerized tomography (CT) scanners has become a standard component of diagnosis and staging in oncology. The use of the radiolabeled tracer 2-deoxy-2-[^18F]fluoro-D-glucose (FDG) is used for the majority of all PET/CT imaging procedures. One of the advantages of PET/CT imaging is its ability to detect, very early during treatment, significant changes in glucose metabolism or even complete shutoff of the neoplastic cell metabolism as a surrogate of tumor chemosensitivity assessment. In addition to cancer detection and staging, PET/CT imaging is becoming increasingly important as a quantitative monitor of individual response to therapy and an evaluation tool for new drug therapies. […] RECIST criteria, where response of tumors to therapy has traditionally assessed by measurement of changes in size/dimension of the tumors in CT images may not evidence early response to the therapy. Changes in size of tumors as a result of therapy may take a long period of time to develop. The most widely used parameter is the standardized uptake value (SUV) is defined as the maximal SUV value (SUVMAX) in the region of interest and reduction in SUVMAX is generally considered the most reliable indicator of the metabolic activity shutdown.
as §1, §2, §3, §4
Data on 19 additional patients having leiomyosarcoma administered 4,4,4-trifluoro-N-[(1S)-2-[[(7S)-5-(2-hydroxyethyl)-6-oxo-7H-pyrido[2,3-d][3]benzazepin-7-yl]amino]-1-methyl-2-oxo-ethyl]butanamide hydrate in Part B of an ongoing clinical trial are presented in Table 3. Choi Response Criteria, were recorded for a limited number of patients and are not reported in Table 3, Choi et al, J Clin Oncol. 2007; 25:1753-1759.

Where [4] appears, read: Patient 1, initial oral dose 100 mg T.I.W., cycle 1.
[5] abbreviates: first assigned dose 50 mg, individual LMS patients 8-22, Hydrate.
The mark [6] stands for this setting: first assigned dose 75 mg, individual LMS patients 4-7, Hydrate.

Molecules are shown by their SMILES. Several values for one entry are separate records, joined by “and”; a condition that tells them apart may be missing. Equal entries are not always repeated.

With `C[C@H](NC(=O)CCC(F)(F)F)C(=O)N[C@@H]1C(=O)N(CCO)c2ncccc2-c2ccccc21` [Compound 1, 4,4,4-trifluoro-N-[(1S)-2-[[(7S)-5-(2-hydroxyethyl)-6-oxo-7H-pyrido[2,3-d][3]benzazepin-7-yl]amino]-1-methyl-2-oxo-ethyl]butanamide], the “atropisomer 2 (minor atropisomer) detected in equilibrium with atropisomer 1” value in data set [1] (aqueous solutions) is on record as 8-9%. Also, in data set [1] (organic solvents), the “atropisomer 2 detected in equilibrium with atropisomer 1” value is given as 1-2%.

Regarding `C[C@H](NC(=O)CCC(F)(F)F)C(=O)N[C@@H]1C(=O)N(CCO)c2ncccc2-c2ccccc21` [4,4,4-Trifluoro-N-[(1S)-2-[[(7S)-5-(2-hydroxyethyl)-6-oxo-7H-pyrido[2,3-d][3]benzazepin-7-yl]amino]-1-methyl-2-oxo-ethyl]butanamide Hydrate], in data set [2] (setting [4]), the “Overall Response DCE-US” value is on record as “Confirmed” and the “Target Response” value is recorded as 90% necrosis. Besides, the “Additional CT scan imaging after 1 cycle” value in data set [2] (after 1 cycle (28 days), patients 1-3) is “confirmed necrosis in all three patients”. Moreover, the “Necrosis of leiomyosarcoma tumor (CT scan of the liver, confirmed by DCE-US)” value in data set [2] (patients 1 and 2, first week of treatment) is on record as “significant necrosis”. Also, in data set [3] (setting [5]), the “Best Change in Tumor Size (%)” value was 13% and 60% and 37% and 19% and 20% and −13% and 33% and 24% and 23% and 50%; the “PET/CT Scan (change in SUVmax %)” value was −7% and 37% and −5% and −30% and 0% and −11% and 16%. In data set [3] (setting [6]), the “Best Change in Tumor Size (%)” value is 13% and 23% and 2%; the “Best RECIST Response” value is listed as “Unconfirmed PR”; the “PET/CT Scan (change in SUVmax %)” value is −4% and 58% and 10% and 32%. In addition, in data set [3] (summary of Table 3 data), the “Clinical effect in leiomyosarcoma tumor patients (PET/CT SUVMAX data)” value is “beneficial clinical effect”.
